# Laboratory results as given in publication doi:10.1101/2021.04.08.439011v1 (biorxiv, 2021).
# Assays:
# Conditions in all cases: 0.1 µM; binder
# ROCK2 = ROCK2 (Homo sapiens, UniProt O75116)
# FLT1 = FLT1 (Homo sapiens, UniProt P17948)
# EPHB3 = EPHB3 (Homo sapiens, UniProt P54753)
# CAMK1G = CAMK1G (Homo sapiens, UniProt Q96NX5)
# CAMK1D = CAMK1D (Homo sapiens, UniProt Q8IU85)
# EPHA3 = EPHA3 (Homo sapiens, UniProt P29320)
# PLK2 = PLK2 (Homo sapiens, UniProt Q9NYY3)
# EPHA5 = EPHA5 (Homo sapiens, UniProt P54756)
# Sequence of EPHA5 (P54756 whole entry): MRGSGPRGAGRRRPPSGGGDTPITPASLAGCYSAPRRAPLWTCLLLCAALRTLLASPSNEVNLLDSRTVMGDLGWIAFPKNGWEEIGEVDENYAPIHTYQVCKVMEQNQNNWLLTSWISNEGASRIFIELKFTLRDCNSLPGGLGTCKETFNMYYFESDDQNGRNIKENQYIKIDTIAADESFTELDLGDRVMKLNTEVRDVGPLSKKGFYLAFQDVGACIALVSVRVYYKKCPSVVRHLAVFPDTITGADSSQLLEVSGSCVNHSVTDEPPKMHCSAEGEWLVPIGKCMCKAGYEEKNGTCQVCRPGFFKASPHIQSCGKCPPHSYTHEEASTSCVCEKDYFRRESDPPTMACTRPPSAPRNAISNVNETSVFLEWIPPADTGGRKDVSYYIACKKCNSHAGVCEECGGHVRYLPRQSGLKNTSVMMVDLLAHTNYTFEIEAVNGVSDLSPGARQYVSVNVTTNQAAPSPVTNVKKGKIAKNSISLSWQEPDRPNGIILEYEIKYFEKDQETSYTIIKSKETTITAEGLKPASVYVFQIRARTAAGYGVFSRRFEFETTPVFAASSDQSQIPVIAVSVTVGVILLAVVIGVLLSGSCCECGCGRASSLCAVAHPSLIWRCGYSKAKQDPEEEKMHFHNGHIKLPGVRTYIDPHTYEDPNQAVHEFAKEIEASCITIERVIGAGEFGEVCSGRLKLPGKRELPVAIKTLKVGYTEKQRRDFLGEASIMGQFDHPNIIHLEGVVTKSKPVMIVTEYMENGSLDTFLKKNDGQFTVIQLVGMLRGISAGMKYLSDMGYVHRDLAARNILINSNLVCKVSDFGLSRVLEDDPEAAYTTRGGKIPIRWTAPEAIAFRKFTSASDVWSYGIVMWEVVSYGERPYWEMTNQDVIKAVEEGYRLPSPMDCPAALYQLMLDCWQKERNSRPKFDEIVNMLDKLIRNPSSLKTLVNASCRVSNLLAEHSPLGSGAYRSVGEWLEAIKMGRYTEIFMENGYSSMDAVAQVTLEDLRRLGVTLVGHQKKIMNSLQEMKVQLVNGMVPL
# TESK1 = TESK1 (Homo sapiens, UniProt Q15569)
# CSNK1D = CSNK1D (Homo sapiens, UniProt P48730)
# PYK2 = PYK2 (Homo sapiens, UniProt Q14289)
# MLK2 = MLK2 (Homo sapiens, UniProt Q02779)
# YANK2 = YANK2 (Homo sapiens, UniProt Q9NY57)
# Sequence of YANK2 (Q9NY57 whole entry): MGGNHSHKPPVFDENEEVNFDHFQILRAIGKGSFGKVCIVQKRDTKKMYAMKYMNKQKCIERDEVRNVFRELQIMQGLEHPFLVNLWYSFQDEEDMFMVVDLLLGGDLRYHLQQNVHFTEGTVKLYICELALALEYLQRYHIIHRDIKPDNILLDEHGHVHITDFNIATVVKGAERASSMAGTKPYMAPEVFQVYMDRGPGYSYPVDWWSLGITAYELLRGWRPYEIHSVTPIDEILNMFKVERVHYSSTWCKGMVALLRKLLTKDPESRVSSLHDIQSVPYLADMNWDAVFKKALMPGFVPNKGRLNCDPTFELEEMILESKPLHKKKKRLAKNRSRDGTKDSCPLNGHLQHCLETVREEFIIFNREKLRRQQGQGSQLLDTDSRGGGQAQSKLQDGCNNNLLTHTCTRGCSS
# YSK4 = YSK4 (Homo sapiens, UniProt Q56UN5)
# RET(V804L) = RET(V804L) (Homo sapiens, UniProt P07949, V804L)
# AMPK-alpha1 = AMPK-alpha1 (Homo sapiens, UniProt Q13131)
# TGFBR1 = TGFBR1 (Homo sapiens, UniProt P36897)
# CDK19 = CDK19 (Homo sapiens, UniProt Q9BWU1)
# PLK1 = PLK1 (Homo sapiens, UniProt P53350)
# TYRO3 = TYRO3 (Homo sapiens, UniProt Q06418)
# CDKL1 = CDKL1 (Homo sapiens, UniProt Q00532)
# IRAK4 = IRAK4 (Homo sapiens, UniProt Q9NWZ3)
# Sequence of IRAK4 (Q9NWZ3 whole entry): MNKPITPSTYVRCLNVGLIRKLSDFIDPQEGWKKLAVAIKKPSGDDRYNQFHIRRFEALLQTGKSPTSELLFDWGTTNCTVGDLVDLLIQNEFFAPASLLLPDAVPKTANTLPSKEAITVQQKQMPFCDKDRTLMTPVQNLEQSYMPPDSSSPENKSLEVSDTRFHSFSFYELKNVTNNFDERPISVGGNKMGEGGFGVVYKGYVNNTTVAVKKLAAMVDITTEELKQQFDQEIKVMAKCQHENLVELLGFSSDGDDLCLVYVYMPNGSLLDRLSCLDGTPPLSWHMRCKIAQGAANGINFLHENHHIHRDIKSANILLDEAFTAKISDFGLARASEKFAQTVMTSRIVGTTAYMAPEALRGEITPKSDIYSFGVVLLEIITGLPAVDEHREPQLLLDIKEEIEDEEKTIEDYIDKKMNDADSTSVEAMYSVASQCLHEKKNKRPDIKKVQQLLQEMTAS
# MYO3A = MYO3A (Homo sapiens, UniProt Q8NEV4)
# BMPR1B = BMPR1B (Homo sapiens, UniProt O00238)
# PIK3C2B = PIK3C2B (Homo sapiens, UniProt O00750)
# CIT = CIT (Homo sapiens, UniProt O14578)
# PRKG2 = PRKG2 (Homo sapiens, UniProt Q13237)
# IRAK1 = IRAK1 (Homo sapiens, UniProt P51617)
# Sequence of IRAK1 (P51617 whole entry): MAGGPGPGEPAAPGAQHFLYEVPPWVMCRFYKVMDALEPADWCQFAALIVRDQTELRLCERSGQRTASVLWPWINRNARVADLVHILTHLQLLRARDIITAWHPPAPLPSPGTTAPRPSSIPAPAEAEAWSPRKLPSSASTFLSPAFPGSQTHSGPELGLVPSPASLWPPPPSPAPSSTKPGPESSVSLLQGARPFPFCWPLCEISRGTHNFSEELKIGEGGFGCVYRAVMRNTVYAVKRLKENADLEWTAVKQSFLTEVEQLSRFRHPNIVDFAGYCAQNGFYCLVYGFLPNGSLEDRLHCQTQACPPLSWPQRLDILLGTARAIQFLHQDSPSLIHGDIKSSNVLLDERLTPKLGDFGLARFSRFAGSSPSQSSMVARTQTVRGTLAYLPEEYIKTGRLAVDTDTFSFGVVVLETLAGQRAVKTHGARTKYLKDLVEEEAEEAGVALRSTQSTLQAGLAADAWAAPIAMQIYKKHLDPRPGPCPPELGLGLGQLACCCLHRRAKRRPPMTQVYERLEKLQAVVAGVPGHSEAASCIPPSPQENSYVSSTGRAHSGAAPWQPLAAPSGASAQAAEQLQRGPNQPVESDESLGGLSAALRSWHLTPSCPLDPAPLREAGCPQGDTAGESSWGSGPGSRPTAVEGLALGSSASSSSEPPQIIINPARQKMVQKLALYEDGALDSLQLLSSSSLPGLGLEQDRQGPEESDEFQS
# ARK5 = ARK5 (Homo sapiens, UniProt O60285)
# Sequence of ARK5 (O60285 whole entry): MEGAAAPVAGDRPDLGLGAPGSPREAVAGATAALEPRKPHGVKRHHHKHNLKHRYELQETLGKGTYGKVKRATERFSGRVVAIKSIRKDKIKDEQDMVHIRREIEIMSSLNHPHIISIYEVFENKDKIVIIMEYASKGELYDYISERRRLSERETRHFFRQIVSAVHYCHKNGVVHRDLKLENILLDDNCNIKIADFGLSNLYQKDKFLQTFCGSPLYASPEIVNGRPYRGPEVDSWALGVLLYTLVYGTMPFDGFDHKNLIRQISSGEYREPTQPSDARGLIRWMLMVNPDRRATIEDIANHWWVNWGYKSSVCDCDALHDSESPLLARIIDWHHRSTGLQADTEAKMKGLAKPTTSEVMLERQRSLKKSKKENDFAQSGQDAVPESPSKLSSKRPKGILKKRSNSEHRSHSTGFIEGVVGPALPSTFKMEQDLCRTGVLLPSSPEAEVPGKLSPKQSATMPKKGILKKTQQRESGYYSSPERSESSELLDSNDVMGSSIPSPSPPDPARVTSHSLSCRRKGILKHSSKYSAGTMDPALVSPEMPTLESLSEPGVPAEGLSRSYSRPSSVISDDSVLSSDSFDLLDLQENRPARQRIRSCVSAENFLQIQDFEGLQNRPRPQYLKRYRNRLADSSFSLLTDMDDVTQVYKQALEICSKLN
# MYO3B = MYO3B (Homo sapiens, UniProt Q8WXR4)
# IKK-alpha = IKK-alpha (Homo sapiens, UniProt O15111)
# PRKCH = PRKCH (Homo sapiens, UniProt P24723)
# Sequence of CAMK1D (Q8IU85 whole entry): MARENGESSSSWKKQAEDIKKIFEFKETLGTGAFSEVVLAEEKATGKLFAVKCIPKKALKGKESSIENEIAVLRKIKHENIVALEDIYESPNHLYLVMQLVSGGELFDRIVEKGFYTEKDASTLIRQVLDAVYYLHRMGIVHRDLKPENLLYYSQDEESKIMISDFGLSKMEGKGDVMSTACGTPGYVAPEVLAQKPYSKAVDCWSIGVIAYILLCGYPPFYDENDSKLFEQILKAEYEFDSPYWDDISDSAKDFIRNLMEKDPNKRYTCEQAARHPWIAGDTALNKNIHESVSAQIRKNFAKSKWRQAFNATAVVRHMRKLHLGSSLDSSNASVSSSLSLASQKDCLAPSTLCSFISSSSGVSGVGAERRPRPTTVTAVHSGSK
# Sequence of ROCK2 (O75116 whole entry): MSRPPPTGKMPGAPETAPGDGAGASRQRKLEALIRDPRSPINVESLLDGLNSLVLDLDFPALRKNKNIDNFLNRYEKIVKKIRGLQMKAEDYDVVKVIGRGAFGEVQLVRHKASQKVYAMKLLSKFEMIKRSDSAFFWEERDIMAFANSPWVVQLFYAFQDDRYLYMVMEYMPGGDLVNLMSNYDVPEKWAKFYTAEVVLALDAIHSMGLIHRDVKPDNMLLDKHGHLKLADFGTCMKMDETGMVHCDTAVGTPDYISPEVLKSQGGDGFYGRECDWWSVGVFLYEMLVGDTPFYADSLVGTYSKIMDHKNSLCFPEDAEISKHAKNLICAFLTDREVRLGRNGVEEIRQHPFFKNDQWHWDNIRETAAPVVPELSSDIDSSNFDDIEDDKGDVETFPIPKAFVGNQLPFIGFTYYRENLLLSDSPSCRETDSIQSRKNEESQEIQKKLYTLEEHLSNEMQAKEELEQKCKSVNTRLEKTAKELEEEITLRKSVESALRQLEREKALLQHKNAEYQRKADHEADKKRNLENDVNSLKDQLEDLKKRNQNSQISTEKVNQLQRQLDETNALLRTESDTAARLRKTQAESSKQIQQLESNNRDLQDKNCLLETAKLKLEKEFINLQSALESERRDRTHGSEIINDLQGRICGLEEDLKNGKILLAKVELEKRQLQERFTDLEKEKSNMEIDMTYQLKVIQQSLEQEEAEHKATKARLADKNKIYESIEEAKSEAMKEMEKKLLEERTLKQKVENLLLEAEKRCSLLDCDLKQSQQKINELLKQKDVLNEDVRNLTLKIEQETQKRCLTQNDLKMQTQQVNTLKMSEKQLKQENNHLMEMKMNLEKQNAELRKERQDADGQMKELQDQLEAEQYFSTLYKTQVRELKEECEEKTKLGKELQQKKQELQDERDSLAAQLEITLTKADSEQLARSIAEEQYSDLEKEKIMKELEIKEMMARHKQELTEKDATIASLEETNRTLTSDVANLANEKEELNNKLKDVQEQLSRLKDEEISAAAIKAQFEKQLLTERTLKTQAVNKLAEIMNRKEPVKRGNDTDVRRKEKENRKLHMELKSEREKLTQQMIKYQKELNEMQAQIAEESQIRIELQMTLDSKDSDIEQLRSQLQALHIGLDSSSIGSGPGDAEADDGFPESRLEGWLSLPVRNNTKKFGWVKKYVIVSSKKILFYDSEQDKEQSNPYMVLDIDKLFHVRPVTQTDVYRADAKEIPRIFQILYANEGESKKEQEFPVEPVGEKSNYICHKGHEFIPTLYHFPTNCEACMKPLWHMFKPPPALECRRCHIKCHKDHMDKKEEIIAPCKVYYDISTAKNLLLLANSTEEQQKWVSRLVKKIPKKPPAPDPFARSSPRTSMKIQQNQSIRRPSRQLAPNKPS
smiles,measurement,setting,value
"CNc1ncc2cc(-c3ccc(-c4cccc(C)n4)cc3Cl)c(=O)n(C[C@H]3OC[C@H](N)CO3)c2n1 [compound 6, G-5555]",Percent Control,ROCK2,94%
same,Percent Control,FLT1,94%
same,Percent Control,EPHB3,100%
same,Percent Control,CAMK1G,100%
same,Percent Control,CAMK1D,43%
same,Percent Control,EPHA3,99%
same,Percent Control,PLK2,75%
same,Percent Control,EPHA5,100%
same,Percent Control,TESK1,83%
same,Percent Control,CSNK1D,90%
same,Percent Control,PYK2,100%
same,Percent Control,MLK2,100%
same,Percent Control,YANK2,3.5%
same,Percent Control,YSK4,70%
same,Percent Control,RET(V804L),94%
same,Percent Control,AMPK-alpha1,95%
same,Percent Control,TGFBR1,99%
same,Percent Control,CDK19,87%
same,Percent Control,PLK1,82%
same,Percent Control,TYRO3,96%
same,Percent Control,CDKL1,100%
same,Percent Control,IRAK4,95%
same,Percent Control,MYO3A,100%
same,Percent Control,BMPR1B,95%
same,Percent Control,PIK3C2B,88%
same,Percent Control,CIT,100%
same,Percent Control,PRKG2,86%
same,Percent Control,IRAK1,97%
same,Percent Control,ARK5,87%
same,Percent Control,MYO3B,48%
same,Percent Control,IKK-alpha,92%
same,Percent Control,PRKCH,82%
